In patent US20180099967A1, “FUSED TRICYCLIC HETEROCYCLIC COMPOUNDS AS HIV INTEGRASE INHIBITORS” (MERCK SHARP & DOHME CORP., priority 2015, published 2018):
Like-named read-outs stand apart in the source and are kept apart here.

Tested on: HIV-1
Assay: microbe, parasite or virus in culture
Type: cell-based, HIV-1 (H9IIIB or NL4-3 virus)
Protocol: HIV-1 replication was monitored using MT4-gag-GFP clone D3 (hereafter designate MT4-GFP), which are MT-4 cells modified to harbor a GFP reporter gene, the expression of which is dependent on the HIV-1 expressed proteins tat and rev. Productive infection of an MT4-GFP cell with HIV-1 results in GFP expression approximately 24 h post-infection.
MT4-GFP cells were maintained at 37° C./5% CO2/90% relative humidity in RPMI 1640 supplemented with 10% fetal bovine serum, 100 U/ml penicillin/streptomycin, and 400 μg/ml G418 to maintain the reporter gene. For infections, MT4-GFP cells were placed in the same medium lacking G418 and infected overnight with H9IIIB or NL4-3 virus at an approximate multiplicity of infection of 0.01 in the same incubation conditions. Cells were then washed and resuspended in either RPMI 1640 containing no serum at 1.6×10^5 cells/mL (serum free conditions), 10% normal human serum at 1.6×10^5 cells/mL (10% NHS conditions) or in 100% normal human serum at 2×10^5 cells/mL (100% NHS conditions). Compound plates were prepared by dispensing compounds taken up in DMSO into wells of 384 well poly D lysine-coated plates (0.2 μl/well) using an ECHO acoustic dispenser. Each compound was tested in a 10 point serial 3-fold dilution (typical final concentrations: 4.2 μM-0.21 nM). Controls included no inhibitor (DMSO only) and a combination of three antiviral agents (efavirenz, indinavir, and the integrase strand transfer inhibitor L-002254051 at final concentrations of 4 μM each). Cells were added (50 μL/well) to compound plates and the infected cells were maintained at 37° C./5% CO2/90% relative humidity.
Infected cells were quantified at two time points, ˜48 h and ˜72 h post-infection, by counting the number of green cells in each well using an Acumen eX3 scanner. […] Inhibition of R0 is calculated for each well, and IC50 value was determined using non-linear 4-parameter curve fitting.

[1] = Human immunodeficiency virus 1, read-out: WILD TYPE CELL ASSAY Viking IP (0% NHS) (nM)
[2] = Human immunodeficiency virus 1, read-out: WILD TYPE CELL ASSAY Viking IP (100% NHS) (nM)
[3] = read-out: WILD TYPE CELL ASSAY Viking IP (0% NHS)
[4] = read-out: WILD TYPE CELL ASSAY Viking IP (100% NHS)

| SMILES | IC50 [1] [nM] | IC50 [2] [nM] | IC50 [3] [nM] | IC50 [4] [nM] |
| --- | --- | --- | --- | --- |
| CCN1C[C@@H]2C[C@@H](N3CCC3)c3c(C(=O)NCc4cccc(Cl)c4F)c(=O)c(O)c(n32)C1=O [Compound 40] | 5 | 20 | – | – |
| CCN1C[C@@H]2C[C@@H](NCCCCl)c3c(C(=O)NCc4cccc(Cl)c4F)c(=O)c(O)c(n32)C1=O [Compound 41] | 2 | 22 | – | – |
| CCN1C[C@@H]2C[C@@H](N3CCCC3)c3c(C(=O)NCc4cccc(Cl)c4F)c(=O)c(O)c(n32)C1=O [Compound 42] | 5 | 16 | – | – |
| CCN1C[C@H]2C[C@@H](NS(C)(=O)=O)c3c(C(=O)NCc4ccc(F)cc4F)c(=O)c(O)c(n32)C1=O [Compound 44] | – | – | 2 | 19 |
| CCN1C[C@H]2C[C@H](NS(C)(=O)=O)c3c(C(=O)NCc4ccc(F)cc4F)c(=O)c(O)c(n32)C1=O [Compound 45] | – | – | 7 | 1200 |
| CCN1C[C@@H]2C[C@H](NS(C)(=O)=O)c3c(C(=O)NCc4ccc(F)cc4F)c(=O)c(O)c(n32)C1=O [Compound 46] | 11 | 1040 | – | – |
| CCN1C[C@@H]2C[C@@H](NS(C)(=O)=O)c3c(C(=O)NCc4ccc(F)cc4F)c(=O)c(O)c(n32)C1=O [Compound 47] | 1 | 10 | – | – |
| CCN1C[C@H]2C[C@@H](NS(C)(=O)=O)c3c(C(=O)NCc4ccc(F)c(F)c4F)c(=O)c(O)c(n32)C1=O [Compound 48] | 7 | 23 | – | – |
| CCN1C[C@H]2C[C@H](NS(C)(=O)=O)c3c(C(=O)NCc4ccc(F)c(F)c4F)c(=O)c(O)c(n32)C1=O [Compound 49] | 11 | 12500 | – | – |
| CCN1C[C@H]2C[C@@H](NS(C)(=O)=O)c3c(C(=O)NCc4ccc(F)c(Cl)c4F)c(=O)c(O)c(n32)C1=O [Compound 50] | 2 | 24 | – | – |
| CCN1C[C@H]2C[C@H](NS(C)(=O)=O)c3c(C(=O)NCc4ccc(F)c(Cl)c4F)c(=O)c(O)c(n32)C1=O [Compound 51] | 9 | 17800 | – | – |
| CCN1C[C@H]2C[C@@H](NS(=O)(=O)c3ccc(C)cc3)c3c(C(=O)NCc4ccc(F)cc4F)c(=O)c(O)c(n32)C1=O [Compound 52] | 22 | 310 | – | – |
| CCN1C[C@H]2C[C@H](NS(=O)(=O)c3ccc(C)cc3)c3c(C(=O)NCc4ccc(F)cc4F)c(=O)c(O)c(n32)C1=O [Compound 53] | 34 | 2260 | – | – |
| CCN1C[C@H]2C[C@@H](NC(C)=O)c3c(C(=O)NCc4ccc(F)cc4F)c(=O)c(O)c(n32)C1=O [Compound 55] | 8 | 540 | – | – |
| CCN1C[C@@H]2C[C@@H](NC(C)=O)c3c(C(=O)NCc4ccc(F)cc4F)c(=O)c(O)c(n32)C1=O [Compound 56] | 2 | 14 | – | – |
| CCN1C[C@@H]2C[C@H](NC(C)=O)c3c(C(=O)NCc4ccc(F)cc4F)c(=O)c(O)c(n32)C1=O [Compound 57] | 24 | 135 | – | – |
| CCN1C[C@@H]2CC(NC(=O)C(=O)N(C)C)c3c(C(=O)NCc4ccc(F)cc4F)c(=O)c(O)c(n32)C1=O (stereo partly shown) [Compound 59] | – | – | 6 | 34 |
